Earlier results, collected in US6673333B1, “Functional MRI agents for cancer imaging” (Research Corporation Technologies, Inc., priority 2000, dated 2004).

Columns and labels:
[1] = thermodynamic stability of the Gd(III) chelate complex
[2] = at physiological pH

stability constant (K), formation constant, logK [1] | dissociation kinetics [2] | Compound
22.4 |  | O=C([O-])CN(CCN(CC(=O)[O-])CC(=O)[O-])CCN(CC(=O)[O-])CC(=O)[O-].[Gd+3] [Gd(DTPA)^2−]
28.5 | very slow | O=C([O-])CN1CCN(CC(=O)[O-])CCN(CC(=O)O)CCN(CC(=O)[O-])CC1.[Gd+3] [Gd-DOTA]
